Assay results as given in the supplement of paper PMC10307832.

Key:
Experiment in all cases: relative viability (nuclei count vs DMSO), 5 days (fraction); higher = more cells survive
AT-7519 + Vorinostat = compound: O=C(NC1CCNCC1)c1n[nH]cc1NC(=O)c1c(Cl)cccc1Cl [AT-7519] + O=C(CCCCCCC(=O)Nc1ccccc1)NO [Vorinostat] (partner 1 µM)
Method in brief: (§1)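 After 5 days of treatment, lung cancer cells in 1536-well plates were fixed and stained in a single step (final 0.05% Triton X-100, 1% formaldehyde, 1 ug/ml Hoechst) and their nuclei counted on 4× images. Treatment had been applied by pin tool the day after seeding as one drug alone or as a fixed anchor-drug dose with five library-drug doses (not always all listed) in √10 steps. Relative viability is the nuclei count of treated wells divided by that of vehicle wells, and values are medians of duplicate plates.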

AT-7519 + OSI-027 = compound: O=C(NC1CCNCC1)c1n[nH]cc1NC(=O)c1c(Cl)cccc1Cl [AT-7519] + COc1cccc2cc(-c3nc([C@H]4CC[C@H](C(=O)O)CC4)n4ncnc(N)c34)[nH]c12 [OSI-027] (partner 0.5 µM)
Method in brief: as §1

AT-7519 + Linsitinib = compound: O=C(NC1CCNCC1)c1n[nH]cc1NC(=O)c1c(Cl)cccc1Cl [AT-7519] + C[C@]1(O)C[C@@H](c2nc(-c3ccc4ccc(-c5ccccc5)nc4c3)c3c(N)nccn32)C1 [Linsitinib] (partner 1 µM)
Method in brief: as §1

AT-7519 + Alpelisib = compound: O=C(NC1CCNCC1)c1n[nH]cc1NC(=O)c1c(Cl)cccc1Cl [AT-7519] + Cc1nc(NC(=O)N2CCC[C@H]2C(N)=O)sc1-c1ccnc(C(C)(C)C(F)(F)F)c1 [Alpelisib] (partner 2 µM)
Method in brief: as §1

Cell Line	relative viability (AT-7519 + Vorinostat; first compound 0.01 µM)	relative viability (AT-7519 + Vorinostat; first compound 0.03162 µM)	relative viability (AT-7519 + Vorinostat; first compound 0.3162 µM)	relative viability (AT-7519 + Vorinostat; first compound 1 µM)	relative viability (AT-7519 + OSI-027; first compound 0.01 µM)	relative viability (AT-7519 + OSI-027; first compound 0.03162 µM)	relative viability (AT-7519 + OSI-027; first compound 0.3162 µM)	relative viability (AT-7519 + OSI-027; first compound 1 µM)	relative viability (AT-7519 + Linsitinib; first compound 0.01 µM)	relative viability (AT-7519 + Linsitinib; first compound 0.03162 µM)	relative viability (AT-7519 + Linsitinib; first compound 0.3162 µM)	relative viability (AT-7519 + Linsitinib; first compound 1 µM)	relative viability (AT-7519 + Alpelisib; first compound 0.01 µM)	relative viability (AT-7519 + Alpelisib; first compound 0.03162 µM)	relative viability (AT-7519 + Alpelisib; first compound 0.3162 µM)	relative viability (AT-7519 + Alpelisib; first compound 1 µM)
NCI-H2009	0.782	0.725	0.81	0.746	0.638	0.665	0.587	0.321	1.24	1.24	1.15	0.676	1.14	1.12	1.15	0.668
NCI-H2405	1.08	0.988	0.954	0.852	0.593	0.655	0.595	0.478	1.19	0.847	0.865	0.473	0.934	0.773	0.716	0.331
NCI-H1755	0.769	0.693	0.839	0.814	0.66	0.655	0.705	0.699	1	0.993	1.03	0.967	0.856	0.95	1.03	0.871
HCC-78	0.411	0.409	0.438	0.417	0.386	0.395	0.349	0.341	0.52	0.452	0.567	0.374	0.142	0.286	0.305	0.283
LOU-NH91	0.932	1	0.897	0.82	0.738	0.742	0.72	0.711	0.984	0.894	0.916	0.776	0.768	0.703	0.729	0.579
NCI-H3122	1.06	1.07	1.04	0.757	1.09	0.871	0.357	0.152	0.971	1.03	1.06	0.421	0.827	0.699	0.813	0.263
HCC-827	0.928	0.827	0.958	1.02	0.842	0.72	0.705	0.539	0.959	0.973	0.946	0.899	1.03	0.999	1.02	0.708
SK-LU-1	0.805	0.725	0.693	0.544	0.356	0.315	0.282	0.168	1.39	1.2	0.849	0.356	1.13	0.94	0.861	0.351
